The target in the experiment is T1, Pyrazinamidase/nicotinamidase PncA (Mycobacterium tuberculosis, UniProt Q50575).
T1 sequence (Q50575 whole entry): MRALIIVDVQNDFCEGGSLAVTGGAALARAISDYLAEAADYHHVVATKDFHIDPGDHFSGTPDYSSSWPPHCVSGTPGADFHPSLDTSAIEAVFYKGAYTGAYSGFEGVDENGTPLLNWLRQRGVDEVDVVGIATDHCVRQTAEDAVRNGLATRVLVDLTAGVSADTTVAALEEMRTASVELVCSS
In words: Enzyme Assay. Here is the method: Enzyme activity measurement by a coupled assay. initial velocities for the reaction of MtPncA were determined by monitoring the loss of absorbance at 340 nm associated with oxidation of NADH to NAD by L-glutamic dehydrogenase (GDH) to produce glutamate from alpha-ketoglutarate.
As for `O=Cc1cnccn1` [PncA Inhibitor, 1], the Ki came to 1.5 µM.

Turning to `O=Cc1cccnc1` [PncA Inhibitor, 2], the inhibition constant Ki turned out to be 0.3 µM. To `O=C(c1cccnc1)C(F)(F)F` [PncA Inhibitor, 3] belongs 420 µM.

`OCc1cccnc1` [PncA Inhibitor, 4]: the inhibition constant (Ki) stood at 63 µM.

On to `N#Cc1cccnc1` [PncA Inhibitor, 5], for which the inhibitory constant (Ki) is 140 µM. Regarding `N#Cc1cnccn1` [PncA Inhibitor, 6], the affinity corresponds to a Ki of 61 µM.

Values taken from BindingDB's records for doi:10.1021/bi1011157 (Albert Einstein College of Medicine, 2010).
